Experimental data published in ChEMBL document CHEMBL6127035, “Novel pyridazinone derivatives bind to KSRP: Synthesis, anti-tumor biological evaluations and modelling insights” (Eur J Med Chem, 2024).
pIC50, pKd: −log10 of the molar value. Active and inactive are the calls of the source. No cut-off for these calls is given here.

How the values were obtained:
HCT-116 = assay: Antiproliferative activity against human HCT-116 cells assessed as reduction in cell viability incubated for 2 days by MTT assay; assay type: functional, cell-based; settings: HCT-116, 48 h
U-87 MG = assay: Antiproliferative activity against human U-87 MG cells assessed as reduction in cell viability incubated for 2 days by MTT assay; assay type: functional, cell-based, U-87MG ATCC; settings: 48 h
KB = assay: Antiproliferative activity against human KB cells assessed as reduction in cell viability incubated for 2 days by MTT assay; assay type: functional, cell-based; settings: 48 h
[1] = Cytotoxicity against human L02 cells assessed as reduction in cell viability incubated for 2 days by MTT assay; assay type: toxicity, cell-based
MDA-MB-231 = assay: Antiproliferative activity against human MDA-MB-231 cells assessed as reduction in cell viability incubated for 2 days by MTT assay; assay type: functional, cell-based; settings: MDA-MB-231, 48 h
A549 = assay: Antiproliferative activity against human A549 cells assessed as reduction in cell viability incubated for 2 days by MTT assay; assay type: functional, cell-based; settings: A549, 48 h
4T1 = assay: Antiproliferative activity against mouse 4T1 cells assessed as reduction in cell viability incubated for 2 days by MTT assay; assay type: functional, cell-based; settings: 4T1, 48 h
NCI-H460 = assay: Antiproliferative activity against human NCI-H460 cells assessed as reduction in cell viability incubated for 2 days by MTT assay; assay type: functional, cell-based; settings: NCI-H460, 48 h
MIA PaCa-2 = assay: Antiproliferative activity against human MIA PaCa-2 cells assessed as reduction in cell viability incubated for 2 days by MTT assay; assay type: functional, cell-based; settings: MIA PaCa-2, 48 h
MCF7 = assay: Antiproliferative activity against human MCF7 cells assessed as reduction in cell viability incubated for 2 days by MTT assay; assay type: functional, cell-based; settings: MCF7, 48 h
[2] = biological target: T1, Far upstream element-binding protein 2 (Homo sapiens) (UniProt Q92945); assay: Binding affinity to KSRP KH23 domain (214 to 413 residues) (unknown origin) extracted from Escherichia coli incubated overnight by SDS-PAGE based immunoblot analysis
T1 sequence (whole entry): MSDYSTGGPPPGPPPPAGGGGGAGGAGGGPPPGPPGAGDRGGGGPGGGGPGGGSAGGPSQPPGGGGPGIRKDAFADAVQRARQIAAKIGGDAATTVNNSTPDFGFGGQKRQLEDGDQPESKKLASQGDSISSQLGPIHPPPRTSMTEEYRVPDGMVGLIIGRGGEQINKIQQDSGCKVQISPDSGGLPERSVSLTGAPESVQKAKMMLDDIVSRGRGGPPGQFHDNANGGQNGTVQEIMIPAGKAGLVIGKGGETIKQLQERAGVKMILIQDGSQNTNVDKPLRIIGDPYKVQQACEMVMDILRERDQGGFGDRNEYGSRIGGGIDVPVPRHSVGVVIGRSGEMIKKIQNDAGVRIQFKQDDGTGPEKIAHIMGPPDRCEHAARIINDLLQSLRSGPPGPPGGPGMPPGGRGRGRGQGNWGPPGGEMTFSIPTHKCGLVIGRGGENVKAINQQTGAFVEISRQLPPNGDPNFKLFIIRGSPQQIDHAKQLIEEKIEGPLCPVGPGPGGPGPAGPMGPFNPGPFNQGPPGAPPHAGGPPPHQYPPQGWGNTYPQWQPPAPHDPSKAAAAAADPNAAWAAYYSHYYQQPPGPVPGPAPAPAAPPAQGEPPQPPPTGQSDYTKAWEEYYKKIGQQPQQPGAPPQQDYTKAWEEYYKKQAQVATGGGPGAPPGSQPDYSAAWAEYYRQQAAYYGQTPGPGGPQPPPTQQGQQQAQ

[3] = biological target: T1, Far upstream element-binding protein 2 (Homo sapiens); assay: Binding affinity to full-length KSRP (1 to 715 residues) (unknown origin) extracted from Escherichia coli incubated overnight by SDS-PAGE based immunoblot analysis
[4] = biological target: T2, Far upstream element-binding protein 2 (Homo sapiens, UniProt Q92945); assay: Binding affinity to recombinant full-length KSRP (unknown origin) assessed as dissociation constant by SPR analysis
T2 sequence (Q92945 whole entry): T1 sequence (whole entry)

[5] = biological target: T1, Far upstream element-binding protein 2 (Homo sapiens); assay: Binding affinity to full length KSRP (unknown origin) incubated overnight by SDS-PAGE based immunoblot analysis
[6] = biological target: T1, Far upstream element-binding protein 2 (Homo sapiens); assay: Binding affinity to recombinant full-length KSRP (unknown origin) by SPR analysis

Compound | pIC50 (HCT-116) | pIC50 (U-87 MG) | pIC50 (KB) | pIC50 (MDA-MB-231) | pIC50 (A549) | pIC50 (4T1) | pIC50 (NCI-H460) | pIC50 (MIA PaCa-2) | pIC50 (MCF7) | Activity [2] | Activity [3] | pKd [4] | Activity [5] | Activity [6] | IC50 at 2 days [1] [nM]
CCN(C)S(=O)(=O)c1ccc(-n2ncc(Cl)c(Cl)c2=O)cc1 | – | – | – | < 4.30 | – | 4.95 | – | – | 5.39 | – | – | – | – | – | –
CCN(CCCN1CCCC1)S(=O)(=O)c1ccc(-n2ncc(OC)c(Cl)c2=O)cc1 | – | – | – | < 4.70 | – | < 4.70 | – | – | < 4.70 | – | – | – | – | – | –
COCC(C)NS(=O)(=O)c1ccc(-n2ncc(Cl)c(Cl)c2=O)cc1 (stereo not drawn) | – | – | – | 4.79 | – | 5.39 | – | – | 5.09 | – | – | 4.42 | – | Dose-Dependent Effect | –
CCN(CCOC)S(=O)(=O)c1ccc(-n2ncc(Cl)c(Cl)c2=O)cc1 | – | – | – | < 5.00 | – | 5.74 | – | – | < 5.00 | – | – | – | – | – | –

Further lines, with some results ahead:

pIC50 (HCT-116) | pIC50 (U-87 MG) | pIC50 (KB) | pIC50 (MDA-MB-231) | pIC50 (A549) | pIC50 (4T1) | pIC50 (NCI-H460) | pIC50 (MIA PaCa-2) | pIC50 (MCF7) | Activity [2] | Activity [3] | pKd [4] | Activity [5] | Activity [6] | Compound | IC50 at 2 days [1] [nM]
6.44 | 6.44 | 6.46 | 4.84 | 5.90 | 5.84 | 6.13 | 6.38 | 5.29 | – | – | – | – | – | CC(C)C(CO)NS(=O)(=O)c1ccc(-n2ncc(Cl)c(Cl)c2=O)cc1 (stereo not drawn) | 3640
– | – | 5.17 | 5.59 | – | 5.67 | – | 5.49 | 5.08 | Active | Active | 4.75 | Active | – | O=C(CCCC[C@@H]1SC[C@@H]2NC(=O)N[C@@H]21)NCCCCNS(=O)(=O)c1ccc(-n2ncc(Cl)c(Cl)c2=O)cc1 | –
6.33 | 6.24 | 6.33 | 5.22 | 5.90 | 5.76 | 5.98 | 6.41 | 5.30 | – | – | – | – | – | COCCNS(=O)(=O)c1ccc(-n2ncc(Cl)c(Cl)c2=O)cc1 | 4070
6.00 | 6.15 | 6.24 | 5.04 | 5.74 | 5.84 | 5.71 | 6.06 | 5.35 | – | – | – | – | – | O=c1c(Cl)c(Cl)cnn1-c1ccc(S(=O)(=O)NCCCN2CCCC2)cc1 | 8150
